Laboratory results taken from US5550212A, “Analogues of hGH-RH(1-29)NH2 having antagonistic activity” (The Administrators of the Tulane Educational Fund, priority 1993, dated 1996).
One block for each molecule: values may come before it. Non-standard residues stand in square brackets, D forms with d. Residues, ends and D or L forms follow the SMILES beside them. No end group written: not given here. *: point of attachment. Phe(4-Cl) = N[C@@H](Cc1ccc(Cl)cc1)C(=O)O; Agmatine = N=C(N)NCCCCN*; Isobutyryl = CC(C)C(=O)*; Nle = CCCC[C@H](N)C(=O)O; Abu = CC[C@H](N)C(=O)O; X1 = O=C(CCBr)*

Columns and labels:
[1] = molecular target: T1, rat pituitary GH-RH receptors (Rattus norvegicus, UniProt Q02644); test: GH-RH binding assay, competitive binding on rat anterior pituitary membrane homogenates; details: for Ki: competition with labelled [His1,Nle27]hGH-RH(1-32)NH2; for R.A. (relative affinity compared to the Standard antagonist): ratio of Ki values, Standard = 1
T1 construct: from tissue; host or cells: rat anterior pituitary (male Sprague-Dawley), crude membranes
T1 sequence (Q02644 23-464): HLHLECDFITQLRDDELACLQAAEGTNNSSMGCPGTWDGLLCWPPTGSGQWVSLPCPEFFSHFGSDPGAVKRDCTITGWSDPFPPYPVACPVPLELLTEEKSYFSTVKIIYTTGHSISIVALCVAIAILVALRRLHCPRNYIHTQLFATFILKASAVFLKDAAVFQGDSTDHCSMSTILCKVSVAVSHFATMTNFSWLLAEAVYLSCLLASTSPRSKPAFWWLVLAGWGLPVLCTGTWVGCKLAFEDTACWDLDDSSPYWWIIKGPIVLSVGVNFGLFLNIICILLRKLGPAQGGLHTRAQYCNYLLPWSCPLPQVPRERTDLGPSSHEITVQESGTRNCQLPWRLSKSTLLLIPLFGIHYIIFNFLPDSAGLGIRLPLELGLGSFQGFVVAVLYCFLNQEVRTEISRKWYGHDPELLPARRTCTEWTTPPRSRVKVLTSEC
Experimental: GH-RH Binding Assay. A sensitive radioreceptor binding assay was developed to determine the binding characteristics of the antagonists of GH-RH (G. Halmos, A. V. Schally et al., Receptor 3, 87-97, 1993), hereby incorporated by reference. The assay is based on binding of labelled [His^1,Nle^27 ]hGH-RH(1-32)NH2 to rat anterior pituitary membrane homogenates. Iodinated derivatives of [His^1,Nle^27 ]hGH-RH(1-32)NH2 are prepared by the chloramine-T method (F. C. Greenwood et al., Biochemistry 89:114-123, 1963), hereby incorporated by reference. Pituitaries from male Sprague-Dawley rats (250-300 g) are used to prepare crude membranes. For saturation binding analyses, membrane homogenates are incubated with at least 6 concentrations of [His^1,^25 I-Tyr^10,Nle^27 ]hGH-RH(1-32)NH2, ranging from 0.005 to 0.35 nM in the presence or absence of excess unlabelled peptide (1 μM). The pellet is counted for radioactivity in a y-counter. The affinities of the antagonist peptides tested to rat pituitary GH-RH receptors are determined in competitive binding experiments. The final binding affinities are estimated by Ki (dissociation constant of the inhibitor-receptor complex) and are determined by the Ligand PC computer program of Munson and Rodbard as modified by McPherson. Relative affinities compared to [Ac-Tyr^1,D-Arg^2 ]hGH-RH(1-29)NH2, the Standard antagonist, are calculated as the ratio of Ki of the tested GH-RH antagonist to the Ki of the Standard antagonist.

[2] = test system: hGH-RH(1-29)NH2 induced GH release; test: Superfused rat pituitary system: inhibition of hGH-RH(1-29)NH2 induced GH release; type: cell-based; details: for Inhibition of GH release (%) 0 min: 0 min response; for Inhibition of GH release (%) 30 min: 30 min response; for Inhibition of GH release (%) 60 min: 60 min response
Experimental: Superfused Rat Pituitary System. The analogues were tested in vitro in a test described earlier (S. Vigh and A. V. Schally, Peptides 5:241-[…], 1984) with modification ([…] and […]. 90:2146-2149, 1993). Briefly, the cells are preincubated with peptides for 9 minutes (3 mL) at various concentrations. Immediately after the incubation, 1 nM hGH-RH(1-29)NH2 is administered for 3 minutes (1 mL) [0 minute response]. To check the duration of the antagonistic effect of the analogue, 1 nM hGH-RH(1-29)NH2 is applied 30, 60, 90, and 120 minutes later for 3 minutes [30, 60, 90, 120 min responses]. Net integral values of the GH responses are evaluated. GH responses are compared to and expressed as percent of the original GH response induced by 1 nM GH-RH(1-29)NH2. The effect of the new antagonists are compared to that of [Ac-[…] ]hGH-RH(1-29)NH2, the "Standard antagonist". Growth Hormone Radio-immunoassay. Rat GH levels in aliquots of undiluted and diluted superfusion samples were measured by double-antibody radioimmunoassay using materials supplied by the National Hormone and Pituitary Program, Baltimore, Md. The results of RIA were analyzed with a computer program developed in our institute (V. Csernus and A. V. Schally, Harwood Academic (Greenstein, B. C. ed., London, pp. 71-109, 1991), hereby incorporated by reference. Inter-assay variation was less than 15% and intra-assay variation was less than 10%.

[3] = test system: hGH-RH(1-29)NH2 induced GH release; test: In vivo test: serum GH levels in rats pretreated with GH-RH antagonists before hGH-RH(1-29)NH2; design: species or system Sprague-Dawley rats
Experimental: In Vivo Tests. Adult male Sprague-Dawley rats are anesthetized with pentobarbital (6 mg/100 g b.w., i.p.). Blood samples are taken from the jugular vein 30 min after the injection of pentobarbital. One group of 7 animals receives hGH-RH(1-29)NH2 as control. Other groups of rats are injected with [Ac-Tyr^1,D-Arg^2 ]hGH-RH(1-29)NH2 as Standard antagonist, or with one of the antagonist peptide 30 seconds prior to hGH-RH(1-29)NH2, which is administered at dose of 2-3 μg/kg b.w. Blood samples are taken from the jugular vein 5 and 15 min after the injection of antagonists. GH levels are measured by RIA. Potencies of the antagonists are calculated by the factorial analysis of Bliss and Marks with 95% confidence limits and are based on the doses of 100 and 400 μg/kg b.w. of the Standard antagonist and 20 and 80 μg/kg b.w. of the antagonists tested. Statistical significance was assessed by Duncan's new multiple range test.

GH release [4] = details: cited from earlier work; for bioactivity (in words): compared with hGH-RH(1-29)NH2
GH release [5] = details: cited from earlier work

Ki [1]: 0.73 ± 0.05 nM
Molecule: CCCC[C@H](NC(=O)[C@@H](NC(=O)[C@H](CC(=O)O)NC(=O)[C@H](CCC(N)=O)NC(=O)[C@H](CC(C)C)NC(=O)[C@H](CC(C)C)NC(=O)[C@H](CCCCN)NC(=O)[C@H](CCCNC(=N)N)NC(=O)[C@H](C)NC(=O)[C@H](CO)NC(=O)[C@H](CC(C)C)NC(=O)[C@H](CCC(N)=O)NC(=O)[C@H](CC)NC(=O)[C@H](CC(C)C)NC(=O)[C@@H](NC(=O)[C@H](C)NC(=O)[C@H](CCCNC(=N)N)NC(=O)[C@H](Cc1ccc(O)cc1)NC(=O)[C@H](CO)NC(=O)[C@H](CC(N)=O)NC(=O)[C@@H](NC(=O)[C@H](Cc1ccc(Cl)cc1)NC(=O)[C@@H](NC(=O)[C@H](C)NC(=O)[C@H](CC(=O)O)NC(=O)[C@@H](CCCNC(=N)N)NC(=O)[C@H](Cc1ccc(O)cc1)NC(=O)C(C)C)[C@@H](C)CC)[C@@H](C)O)C(C)C)[C@@H](C)CC)C(=O)N[C@@H](CO)C(=O)N[C@@H](CCCNC(=N)N)C(N)=O [Peptide 15, [Ibu^0,D-Arg^2,Phe(pCl)^6,Ala^12,Abu^15,Nle^27]hGH-RH(1-29)NH2] (Isobutyryl-Y[dR]DAI[Phe(4-Cl)]TNSYRAVL[Abu]QLSARKLLQDI[Nle]SR-NH2)

Ki [1]: 0.12 ± 0.04 nM
Molecule: CCCC[C@H](NC(=O)[C@@H](NC(=O)[C@H](CC(=O)O)NC(=O)[C@H](CCC(N)=O)NC(=O)[C@H](CC(C)C)NC(=O)[C@H](CC(C)C)NC(=O)[C@H](CCCCN)NC(=O)[C@H](CCCNC(=N)N)NC(=O)[C@H](C)NC(=O)[C@H](CO)NC(=O)[C@H](CC(C)C)NC(=O)[C@H](CCC(N)=O)NC(=O)[C@H](CC)NC(=O)[C@H](CC(C)C)NC(=O)[C@@H](NC(=O)[C@H](CCCCN)NC(=O)[C@H](CCCNC(=N)N)NC(=O)[C@H](Cc1ccc(O)cc1)NC(=O)[C@H](CO)NC(=O)[C@H](CC(N)=O)NC(=O)[C@@H](NC(=O)[C@H](Cc1ccc(Cl)cc1)NC(=O)[C@@H](NC(=O)[C@H](C)NC(=O)[C@H](CC(=O)O)NC(=O)[C@@H](CCCNC(=N)N)NC(=O)[C@H](Cc1ccc(O)cc1)NC(=O)C(C)C)[C@@H](C)CC)[C@@H](C)O)C(C)C)[C@@H](C)CC)C(=O)N[C@@H](CO)C(=O)NCCCCNC(=N)N [Peptide 19, Ibu^0,D-Arg^2, Phe(pCl)^6,Abu^15,Nle^27]hGH-RH(1-28)Agm] (Isobutyryl-Y[dR]DAI[Phe(4-Cl)]TNSYRKVL[Abu]QLSARKLLQDI[Nle]S-Agmatine)

Molecule: CCCC[C@H](NC(=O)[C@@H](NC(=O)[C@H](CC(=O)O)NC(=O)[C@H](CCC(N)=O)NC(=O)[C@H](CC(C)C)NC(=O)[C@H](CC(C)C)NC(=O)[C@H](CCCCN)NC(=O)[C@H](CCCNC(=N)N)NC(=O)[C@H](C)NC(=O)[C@H](CO)NC(=O)[C@H](CC(C)C)NC(=O)[C@H](CCC(N)=O)NC(=O)[C@H](CC)NC(=O)[C@H](CC(C)C)NC(=O)[C@@H](NC(=O)[C@H](CCCCN)NC(=O)[C@H](CCCNC(=N)N)NC(=O)[C@H](Cc1ccc(O)cc1)NC(=O)[C@H](CO)NC(=O)[C@H](CC(N)=O)NC(=O)[C@@H](NC(=O)[C@H](Cc1ccc(Cl)cc1)NC(=O)[C@@H](NC(=O)[C@H](C)NC(=O)[C@H](CC(=O)O)NC(=O)[C@@H](CCCNC(=N)N)NC(=O)[C@H](Cc1ccc(O)cc1)NC(=O)CCBr)[C@@H](C)CC)[C@@H](C)O)C(C)C)[C@@H](C)CC)C(=O)N[C@@H](CO)C(=O)NCCCCNC(=N)N [Peptide 20] (X1-Y[dR]DAI[Phe(4-Cl)]TNSYRKVL[Abu]QLSARKLLQDI[Nle]S-Agmatine; N-terminus assumed)
R.A. (relative affinity compared to the Standard antagonist) [1]: 3.27
Inhibition of GH release (%) 0 min ([2]; dose 10 nM): 56.2%
Inhibition of GH release (%) 30 min ([2]; dose 10 nM): 35.2%
Inhibition of GH release (%) 60 min ([2]; dose 10 nM): 51.8%
Inhibition of GH release (%) 0 min ([2]; dose 30 nM): 58%
Inhibition of GH release (%) 30 min ([2]; dose 30 nM): 19.3%
Inhibition of GH release (%) 60 min ([2]; dose 30 nM): 35.3%
Inhibition of GH release (%) 0 min ([2]; dose 100 nM): 86.4%
Inhibition of GH release (%) 30 min ([2]; dose 100 nM): 75%
Inhibition of GH release (%) 60 min ([2]; dose 100 nM): 62.8%

Ki [1]: 3.22 ± 0.12 nM
R.A. (relative affinity compared to the Standard antagonist) [1]: 1
Molecule: CC[C@H](C)[C@H](NC(=O)[C@H](C)NC(=O)[C@H](CC(=O)O)NC(=O)[C@@H](CCCNC(=N)N)NC(=O)[C@H](Cc1ccc(O)cc1)NC(C)=O)C(=O)N[C@@H](Cc1ccccc1)C(=O)N[C@H](C(=O)N[C@@H](CC(N)=O)C(=O)N[C@@H](CO)C(=O)N[C@@H](Cc1ccc(O)cc1)C(=O)N[C@@H](CCCNC(=N)N)C(=O)N[C@@H](CCCCN)C(=O)N[C@H](C(=O)N[C@@H](CC(C)C)C(=O)NCC(=O)N[C@@H](CCC(N)=O)C(=O)N[C@@H](CC(C)C)C(=O)N[C@@H](CO)C(=O)N[C@@H](C)C(=O)N[C@@H](CCCNC(=N)N)C(=O)N[C@@H](CCCCN)C(=O)N[C@@H](CC(C)C)C(=O)N[C@@H](CC(C)C)C(=O)N[C@@H](CCC(N)=O)C(=O)N[C@@H](CC(=O)O)C(=O)N[C@H](C(=O)N[C@@H](CCSC)C(=O)N[C@@H](CO)C(=O)N[C@@H](CCCNC(=N)N)C(N)=O)[C@@H](C)CC)C(C)C)[C@@H](C)O [Standard antagonist, [Ac-Tyr^1, D-Arg^2]hGH-RH(1-29)NH2, reference compound] (Ac-Y[dR]DAIFTNSYRKVLGQLSARKLLQDIMSR-NH2)
Inhibition of GH release (%) 0 min ([2]; dose 100 nM): 62.1%
Inhibition of GH release (%) 30 min ([2]; dose 100 nM): 2.5%
Inhibition of GH release (%) 60 min ([2]; dose 100 nM): 19%
GH Levels ([3]; antagonist 100.0 μg/kg intravenously before GH-RH(1-29)NH2): 738.3 ± 34.7 ng/mL
GH Levels ([3]; antagonist 400.0 μg/kg intravenously before GH-RH(1-29)NH2): 439.7 ± 47.3 ng/mL

Molecule: GH-RH(1-27)NH2 (YADAIFTNSYRKVLGQLSARKLLQDIM-NH2; UniProt P01286 32-58, looked up, fragment) [shorter GH-RH analogue]
bioactivity (in words) (GH release [4]): substantially lower bioactivity

Molecule: GH-RH(1-28)NH2 (YADAIFTNSYRKVLGQLSARKLLQDIMS-NH2; UniProt P01286 32-59, looked up, fragment) [shorter GH-RH analogue]
bioactivity (in words) (GH release [4]): substantially lower bioactivity

Molecule: [Ac-Tyr^1 ]GH-RH (Ac-YADAIFTNSYRKVLGQLSARKLLQDIMSRQQGESNQERGARARL; ends and bridges not checked; UniProt P01286 32-75, looked up)
GH releasing activity relative to GH-RH (GH release [4]): 2-3%

Molecule: [AcTyr^1 ]hGH-RH(1-29)NH2
in vivo potency over that of GH-RH (GH release [5]): ten fold or more

Molecule: [D-Tyr^1 ]GH-RH
GH releasing activity relative to GH-RH (GH release [4]): 2-3%

Molecule: hGH-RH(2-44) (ADAIFTNSYRKVLGQLSARKLLQDIMSRQQGESNQERGARARL; ends and bridges not checked; UniProt P01286 33-75, looked up, fragment) [GH-RH without its N-terminus residue]
GH releasing activity relative to GH-RH (GH release [4]): 0.1%
